# Where two headings read alike, the source gives them in different places.
# Legend:
# ALK = ALK (Homo sapiens (Human), UniProt Q9UM73); test: Kinase inhibitory activity, isotopic labeling (γ-33P-ATP); type: biochemical; details: compound at 10 μM; read-out: The kinase activity inhibitory rate (%) by the tested compounds at 10 μM ALK
# Protocol: (§1) The object of this assay was to test the inventive compounds for the kinase inhibitory activity in vitro. In this assay, an isotopic labeling method was used to label the γ phosphate group on ATP. EGFR (including wild type, L858R mutant type and L858R/T790M double mutant type), VEGFR2, ALK, BTK, c-KIT, c-SRC, MET, PDGFRα and FLT3 kinases were tested in vitro for the activity inhibition. Staurosporine was used as a reference molecule (or referred to as a positive control). […] The IC50 value can be obtained by the calculation of the inhibitory rates at a series of different concentrations of the tested compounds.
# (§2) To a reaction tube were successively added the buffer solution (8 mM MOPS, pH 7.0, 0.2 mM EDTA, 10 mM MnCl2), the kinase to be tested (5-10 mU) (EGFR/ALK/BTK/c-KIT/c-SRC/MET/PDGFRα/VEGFR2), the substrate for the kinase to be tested (a reference material), 10 mM of the solution of magnesium acetate and γ-^33 P-ATP, and different concentrations of the tested compounds. […] The reaction was terminated with […] of the 3% phosphate buffer solution. 10 μL of the reaction liquid was titrated on the Filtermat A membrane. The membrane was washed with 75 mM of the phosphate solution thrice (5 minutes each time), and then with methanol once, and finally dried. The membrane was subjected to a scintillation counting. The value of the scintillation counting reflected the phosphorylation level of the substrate and therefore could characterize the inhibition of the kinase activity.
# BTK = BTK (Homo sapiens (Human), UniProt Q06187); test: as above; type: biochemical; details: compound at 10 μM; read-out: The kinase activity inhibitory rate (%) by the tested compounds at 10 μM BTK
# Protocol: as §1, §2
# FLT3 = FLT3 (Homo sapiens (Human), UniProt P36888); test: as above; type: biochemical; details: compound at 10 μM; read-out: The kinase activity inhibitory rate (%) by the tested compounds at 10 μM FLT3
# Protocol: as §1, §2
# MET = MET (Homo sapiens (Human), UniProt P08581); test: as above; type: biochemical; details: compound at 10 μM; read-out: The kinase activity inhibitory rate (%) by the tested compounds at 10 μM MET
# Protocol: as §1, §2
# PDGFRα = PDGFRα (Homo sapiens (Human), UniProt P16234); test: as above; type: biochemical; details: compound at 10 μM; read-out: The kinase activity inhibitory rate (%) by the tested compounds at 10 μM PDGFRα
# Protocol: as §1, §2
# VEGFR2 = VEGFR2 (Homo sapiens (Human), UniProt P35968); test: as above; type: biochemical
# Protocol: as §1, §2
# c-KIT = c-KIT (Homo sapiens (Human), UniProt P10721); test: as above; type: biochemical; details: compound at 10 μM; read-out: The kinase activity inhibitory rate (%) by the tested compounds at 10 μM c-KIT
# Protocol: as §1, §2
# c-SRC = c-SRC (Homo sapiens (Human), UniProt P12931); test: as above; type: biochemical; details: compound at 10 μM; read-out: The kinase activity inhibitory rate (%) by the tested compounds at 10 μM c-SRC
# Protocol: as §1, §2
# [1] = tested on: acute myelogenous leukemia cell strain MV4-11; test: In-vitro tumor cell proliferation inhibition, MTT; type: cell-based, human
# Source text: (§3) The object of this assay was to test the inventive compounds for the inhibitory activity of in-vitro tumor cell proliferation. The MTT (tetreamethyl-azo-zole-salt) colorimetric method was used in this assay.
# (§4) Human non-small cell lung carcinoma cell strains HCC827, PC-9, H1975 (EGFR L858R/T790M mutation) and H292 (EGFR WT), and other tumor type cell strains, including human acute myelogenous leukemia cell strain MV4-11, human chronic granulocytic leukemia cell strain K562, human squamous cell carcinoma cell strain A431, human breast carcinoma cell strains MDA-MB-468 and BT 474, human colon cancer cell strains SW480, HCT116 and SW620, human liver cancer cell strain Hep G2, human gastric cancer cell strain MK-45, and human malignant melanoma cell strain A375 used in this assay were all purchased from ATCC company, USA and kept in the laboratory. All of the above-mentioned non-small cell lung carcinoma cell strains and the breast carcinoma cell strain BT 474 were cultured with a RPMI-1640 complete culture medium containing 10% fetal bovine serum, 100 U/ml penicillin and 100 μg/ml streptomycin under 5% CO2 and at 37° C. The other cell strains were cultured with a DMEM complete culture medium containing 10% fetal bovine serum (having a MV4-11 cell content of 20%), 100 U/ml penicillin and 100 μg/ml streptomycin under 5% CO2 and 37° C.
# (§5) A cell suspension having a cell concentration of 1-2×10^4 cells/ml was treated with a complete cell culture solution to adjust the cell concentration, wherein the cell concentrations for HCC827 and MV4-11 were adjusted to 6×10^4 cells/ml and 1×10^5 cells/ml respectively. The cell suspension was inoculated in a 96-well plate with 200 μl cell suspension/well and cultured overnight. Next day, the supernatant was drawn off and discarded. Then, the cells were treated with the tested compounds in a gradient concentration respectively. In the meanwhile, a negative control group free of the drug substance and an isovolumetric solvent control group (having a DMSO concentration of 1%) were used. The triplicate wells were used for each of dose groups. The culturing was conducted at 37° C. under 5% CO2. After 72 hours, […] having a concentration of 5 mg/ml was added to each of wells. The culturing was further conducted for 2-4 hours. The supernatant was discarded. Then […] was added to each of wells. The contents in the well were mixed homogenously by oscillation for 15 minutes. The absorbance (A) value was measured with a microplate reader at λ=570 nm (the A value is in the direct proportion to the number of living cells) and averaged. The relative cell proliferation inhibitory rate is (A570 control-group−A570 dose-group)/A570 control-group×100%. The assay was repeated for at least three times. The data was expressed as number average. The statistical data were analyzed using t-test. P<0.05 was considered significant. The cell proliferation inhibition of the following compounds was expressed as IC50 or inhibitory rate.
# [2] = tested on: breast carcinoma cell strain BT474; test: In-vitro tumor cell proliferation inhibition, MTT; type: cell-based, human
# Source text: as §3, §4, §5
# [3] = tested on: breast carcinoma cell strain MDA-MB-468; test: In-vitro tumor cell proliferation inhibition, MTT; type: cell-based, human
# Source text: as §3, §4, §5
# [4] = tested on: chronic granulocytic leukemia cell strain K562; test: In-vitro tumor cell proliferation inhibition, MTT; type: cell-based, human
# Source text: as §3, §4, §5
# [5] = tested on: colon cancer cell strain HCT116; test: In-vitro tumor cell proliferation inhibition, MTT; type: cell-based, human
# Source text: as §3, §4, §5
# [6] = tested on: colon cancer cell strain SW480; test: In-vitro tumor cell proliferation inhibition, MTT; type: cell-based, human
# Source text: as §3, §4, §5
# [7] = tested on: colon cancer cell strain SW620; test: In-vitro tumor cell proliferation inhibition, MTT; type: cell-based, human
# Source text: as §3, §4, §5
# [8] = tested on: gastric cancer cell strain MK-45; test: In-vitro tumor cell proliferation inhibition, MTT; type: cell-based, human; details: 72 hours, read-out: MK45 (IC50)
# Source text: as §3, §4, §5
# [9] = tested on: liver cancer cell strain Hep G2; test: In-vitro tumor cell proliferation inhibition, MTT; type: cell-based, human
# Source text: as §3, §4, §5
# [10] = tested on: malignant melanoma cell strain A375; test: In-vitro tumor cell proliferation inhibition, MTT; type: cell-based, human
# Source text: as §3, §4, §5
# [11] = tested on: squamous cell carcinoma cell strain A431; test: In-vitro tumor cell proliferation inhibition, MTT; type: cell-based, human
# Source text: as §3, §4, §5
# [12] = tested on: non-small cell lung carcinoma cell strain H1975 (EGFR L858R/T790M mutation); test: In-vitro tumor cell proliferation inhibition, MTT; type: cell-based, human; details: 72 hours
# Protocol: as §3
# (§6) All of the above-mentioned non-small cell lung carcinoma cell strains and the breast carcinoma cell strain BT 474 were cultured with a RPMI-1640 complete culture medium containing 10% fetal bovine serum, 100 U/ml penicillin and 100 μg/ml streptomycin under 5% CO2 and at 37° C. The other cell strains were cultured with a DMEM complete culture medium containing 10% fetal bovine serum (having a MV4-11 cell content of 20%), 100 U/ml penicillin and 100 μg/ml streptomycin under 5% CO2 and 37° C.
# as §5
# [13] = tested on: non-small cell lung carcinoma cell strain H292 (EGFR WT); test: In-vitro tumor cell proliferation inhibition, MTT; type: cell-based, human; details: 72 hours
# Protocol: as §3, §6, §5
# [14] = tested on: non-small cell lung carcinoma cell strain HCC827; test: In-vitro tumor cell proliferation inhibition, MTT; type: cell-based, human; details: 72 hours
# Protocol: as §3, §6, §5
# [15] = tested on: non-small cell lung carcinoma cell strain PC-9 (EGFR delE746-A750 deletion mutation); test: In-vitro tumor cell proliferation inhibition, MTT; type: cell-based, human; details: 72 hours
# Protocol: as §3, §6, §5
# [16] = 72 hours, read-out: HEPG2 (IC50)
# ALK, sequence (Q9UM73 19-1620): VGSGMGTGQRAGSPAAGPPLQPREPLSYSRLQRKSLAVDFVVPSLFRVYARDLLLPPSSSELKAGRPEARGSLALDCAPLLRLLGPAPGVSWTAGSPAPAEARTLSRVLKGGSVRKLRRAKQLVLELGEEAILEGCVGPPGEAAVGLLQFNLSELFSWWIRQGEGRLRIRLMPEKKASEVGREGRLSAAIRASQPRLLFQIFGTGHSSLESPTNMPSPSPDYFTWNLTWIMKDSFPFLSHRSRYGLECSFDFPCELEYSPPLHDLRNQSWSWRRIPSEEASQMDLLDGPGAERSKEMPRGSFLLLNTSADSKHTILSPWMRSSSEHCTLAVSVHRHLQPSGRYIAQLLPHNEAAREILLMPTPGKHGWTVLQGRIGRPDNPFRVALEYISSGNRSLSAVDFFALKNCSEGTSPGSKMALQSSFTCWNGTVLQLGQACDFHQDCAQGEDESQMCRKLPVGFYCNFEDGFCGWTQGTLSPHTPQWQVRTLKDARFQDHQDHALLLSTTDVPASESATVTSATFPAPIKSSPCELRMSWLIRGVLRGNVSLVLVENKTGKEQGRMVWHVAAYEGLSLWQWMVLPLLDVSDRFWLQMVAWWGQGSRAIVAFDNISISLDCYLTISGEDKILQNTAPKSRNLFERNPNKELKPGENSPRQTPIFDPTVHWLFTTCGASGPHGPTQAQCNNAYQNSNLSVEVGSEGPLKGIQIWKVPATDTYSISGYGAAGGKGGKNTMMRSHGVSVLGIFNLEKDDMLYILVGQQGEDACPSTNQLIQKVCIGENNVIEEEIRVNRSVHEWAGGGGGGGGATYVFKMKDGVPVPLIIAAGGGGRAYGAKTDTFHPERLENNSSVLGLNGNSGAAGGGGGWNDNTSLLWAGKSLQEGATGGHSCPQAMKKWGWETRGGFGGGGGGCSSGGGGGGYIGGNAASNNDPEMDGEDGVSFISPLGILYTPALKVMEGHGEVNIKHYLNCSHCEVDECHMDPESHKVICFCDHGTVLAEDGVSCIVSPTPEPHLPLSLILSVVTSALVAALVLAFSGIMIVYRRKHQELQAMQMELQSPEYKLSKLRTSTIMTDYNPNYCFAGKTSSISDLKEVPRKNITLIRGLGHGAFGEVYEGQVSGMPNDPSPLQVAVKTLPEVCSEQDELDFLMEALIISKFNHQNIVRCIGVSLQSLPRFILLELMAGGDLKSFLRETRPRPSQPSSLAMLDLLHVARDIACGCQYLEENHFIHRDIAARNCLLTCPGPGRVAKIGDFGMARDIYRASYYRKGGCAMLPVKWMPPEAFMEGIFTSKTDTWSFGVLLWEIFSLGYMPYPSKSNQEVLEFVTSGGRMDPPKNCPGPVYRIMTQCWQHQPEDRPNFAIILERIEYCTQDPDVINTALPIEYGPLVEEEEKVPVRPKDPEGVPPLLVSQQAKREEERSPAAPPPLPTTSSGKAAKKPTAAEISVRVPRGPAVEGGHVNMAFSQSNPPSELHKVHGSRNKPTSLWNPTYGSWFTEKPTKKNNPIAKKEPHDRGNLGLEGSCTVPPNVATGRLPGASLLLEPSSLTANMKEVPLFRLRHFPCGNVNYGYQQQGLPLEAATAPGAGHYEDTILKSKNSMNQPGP
# PDGFRα, sequence (P16234 24-1089): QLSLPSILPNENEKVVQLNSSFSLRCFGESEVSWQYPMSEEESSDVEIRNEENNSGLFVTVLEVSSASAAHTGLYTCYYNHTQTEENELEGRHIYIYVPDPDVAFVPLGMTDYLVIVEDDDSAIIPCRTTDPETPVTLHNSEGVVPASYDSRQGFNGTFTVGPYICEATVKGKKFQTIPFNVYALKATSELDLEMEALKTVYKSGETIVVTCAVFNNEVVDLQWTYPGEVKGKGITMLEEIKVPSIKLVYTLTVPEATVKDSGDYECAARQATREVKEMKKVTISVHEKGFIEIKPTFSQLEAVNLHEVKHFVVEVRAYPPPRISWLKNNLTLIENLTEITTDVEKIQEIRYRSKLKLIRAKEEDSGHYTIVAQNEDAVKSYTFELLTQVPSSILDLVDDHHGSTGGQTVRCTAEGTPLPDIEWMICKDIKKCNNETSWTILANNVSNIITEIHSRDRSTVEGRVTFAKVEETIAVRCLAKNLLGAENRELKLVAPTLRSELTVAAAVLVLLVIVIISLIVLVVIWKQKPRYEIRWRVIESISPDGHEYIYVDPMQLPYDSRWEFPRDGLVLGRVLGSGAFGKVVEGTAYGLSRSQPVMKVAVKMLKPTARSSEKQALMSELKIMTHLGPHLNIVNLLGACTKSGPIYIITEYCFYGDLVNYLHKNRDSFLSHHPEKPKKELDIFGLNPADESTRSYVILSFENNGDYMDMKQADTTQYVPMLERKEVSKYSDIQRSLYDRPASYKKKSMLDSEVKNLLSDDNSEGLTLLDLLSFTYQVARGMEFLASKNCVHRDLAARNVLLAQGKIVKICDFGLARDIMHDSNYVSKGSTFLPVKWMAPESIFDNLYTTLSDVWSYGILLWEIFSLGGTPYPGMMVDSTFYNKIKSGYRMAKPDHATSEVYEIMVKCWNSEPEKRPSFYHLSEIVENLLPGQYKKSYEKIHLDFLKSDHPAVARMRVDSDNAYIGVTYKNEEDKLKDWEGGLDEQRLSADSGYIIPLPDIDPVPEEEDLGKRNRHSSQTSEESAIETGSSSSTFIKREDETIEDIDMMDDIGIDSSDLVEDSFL
# BTK, sequence (Q06187 whole entry): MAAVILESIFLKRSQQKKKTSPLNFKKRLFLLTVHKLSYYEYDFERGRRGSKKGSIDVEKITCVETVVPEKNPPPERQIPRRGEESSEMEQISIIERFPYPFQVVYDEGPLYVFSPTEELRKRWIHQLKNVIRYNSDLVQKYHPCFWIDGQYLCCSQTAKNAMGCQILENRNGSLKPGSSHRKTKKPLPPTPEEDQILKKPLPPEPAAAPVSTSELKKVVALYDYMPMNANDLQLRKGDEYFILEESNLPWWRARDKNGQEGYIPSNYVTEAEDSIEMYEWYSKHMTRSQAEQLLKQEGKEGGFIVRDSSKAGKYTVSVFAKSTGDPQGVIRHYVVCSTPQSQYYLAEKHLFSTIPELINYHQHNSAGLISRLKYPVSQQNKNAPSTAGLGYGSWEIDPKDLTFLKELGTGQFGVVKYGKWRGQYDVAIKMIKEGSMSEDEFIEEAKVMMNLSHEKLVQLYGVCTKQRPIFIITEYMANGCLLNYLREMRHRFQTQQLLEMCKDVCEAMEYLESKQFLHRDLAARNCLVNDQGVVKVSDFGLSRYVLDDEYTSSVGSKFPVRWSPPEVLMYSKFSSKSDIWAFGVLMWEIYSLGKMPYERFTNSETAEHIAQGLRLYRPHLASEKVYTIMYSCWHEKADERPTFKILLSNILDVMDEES
# FLT3, sequence (P36888 27-993): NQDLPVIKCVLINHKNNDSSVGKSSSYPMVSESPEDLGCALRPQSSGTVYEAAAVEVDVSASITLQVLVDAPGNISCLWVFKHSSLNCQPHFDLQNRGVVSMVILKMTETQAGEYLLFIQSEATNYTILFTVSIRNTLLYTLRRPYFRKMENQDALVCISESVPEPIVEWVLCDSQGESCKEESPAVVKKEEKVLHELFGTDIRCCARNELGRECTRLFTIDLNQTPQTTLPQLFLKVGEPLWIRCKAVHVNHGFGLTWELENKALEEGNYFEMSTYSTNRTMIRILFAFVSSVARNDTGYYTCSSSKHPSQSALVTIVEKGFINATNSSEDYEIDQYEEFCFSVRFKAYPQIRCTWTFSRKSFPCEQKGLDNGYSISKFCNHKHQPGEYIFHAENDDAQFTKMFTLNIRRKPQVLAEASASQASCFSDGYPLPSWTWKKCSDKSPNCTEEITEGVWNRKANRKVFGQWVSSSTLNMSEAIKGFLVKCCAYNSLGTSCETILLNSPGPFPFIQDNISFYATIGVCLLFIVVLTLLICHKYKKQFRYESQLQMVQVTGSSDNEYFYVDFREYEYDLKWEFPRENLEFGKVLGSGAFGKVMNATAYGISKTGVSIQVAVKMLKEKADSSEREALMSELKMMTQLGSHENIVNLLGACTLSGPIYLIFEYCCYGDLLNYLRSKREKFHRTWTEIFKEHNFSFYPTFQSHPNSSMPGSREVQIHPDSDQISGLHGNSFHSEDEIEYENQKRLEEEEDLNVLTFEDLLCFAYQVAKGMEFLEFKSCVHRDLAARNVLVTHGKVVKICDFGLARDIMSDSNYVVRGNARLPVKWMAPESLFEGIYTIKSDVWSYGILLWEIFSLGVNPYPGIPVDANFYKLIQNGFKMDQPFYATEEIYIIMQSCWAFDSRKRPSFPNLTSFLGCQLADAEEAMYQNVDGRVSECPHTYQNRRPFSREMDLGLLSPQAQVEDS
# c-SRC, sequence (P12931 whole entry, looked up): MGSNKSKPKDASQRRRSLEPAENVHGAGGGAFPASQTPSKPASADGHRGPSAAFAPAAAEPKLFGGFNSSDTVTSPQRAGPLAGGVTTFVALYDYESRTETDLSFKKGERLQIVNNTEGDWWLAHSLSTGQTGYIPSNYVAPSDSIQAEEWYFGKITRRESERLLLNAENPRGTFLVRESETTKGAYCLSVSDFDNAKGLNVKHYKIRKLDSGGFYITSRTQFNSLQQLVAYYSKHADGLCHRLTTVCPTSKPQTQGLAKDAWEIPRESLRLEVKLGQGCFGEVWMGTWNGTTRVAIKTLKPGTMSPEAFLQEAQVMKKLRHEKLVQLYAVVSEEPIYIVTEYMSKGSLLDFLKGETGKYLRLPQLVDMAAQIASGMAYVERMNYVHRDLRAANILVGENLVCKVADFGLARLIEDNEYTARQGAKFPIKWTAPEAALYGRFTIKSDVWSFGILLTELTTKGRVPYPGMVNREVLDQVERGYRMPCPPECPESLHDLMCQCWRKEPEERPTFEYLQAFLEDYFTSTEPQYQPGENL
IC50 [12] [µM],IC50 [13] [µM],IC50 [14] [µM],IC50 [15] [µM],IC50 ([1]; 72 hours) [µM],IC50 ([2]; 72 hours) [µM],IC50 ([3]; 72 hours) [µM],IC50 ([4]; 72 hours) [µM],IC50 ([5]; 72 hours) [µM],IC50 ([6]; 72 hours) [µM],IC50 ([7]; 72 hours) [µM],IC50 [8] [µM],"IC50 [9, 16] [µM]",IC50 ([10]; 72 hours) [µM],IC50 ([11]; 72 hours) [µM],Compound,further results
–,–,–,–,–,–,–,–,–,–,–,–,–,–,–,"CC(C)n1c(Nc2ccc(F)c(Cl)c2)nc2cnc(Nc3ccc(C(=O)NN4CCN(C)CC4)cc3F)nc21 [Compound 8-5, 3-fluoro-4-(9-isopropyl-8-(3-chloro-4-fluorophenylamino)-9H-purin-2-ylamino)-N-(4-methylpiperazin-1-yl)benzamide]","inhibition at 10 µM (ALK): 54%; inhibition at 10 µM (BTK): 78%; inhibition at 10 µM (FLT3): 35%; inhibition at 10 µM (MET): 64%; inhibition at 10 µM (PDGFRα): 19%; IC50 (VEGFR2): > 1 µM; inhibition at 10 µM (c-KIT): 54%; inhibition at 10 µM (c-SRC): 32%; IC50 ([1]; Homo sapiens, MV4-11, 72 hours): 1.77 µM; IC50 ([2]; Homo sapiens, BT-474, 72 hours): 1.86 µM; IC50 ([3]; Homo sapiens, MDA-MB-468, 72 hours): 6.13 µM; IC50 ([4]; Homo sapiens, K562, 72 hours): 3.73 µM; IC50 ([5]; Homo sapiens, HCT-116, 72 hours): 7.81 µM; IC50 ([6]; Homo sapiens, SW480, 72 hours): > 10 µM; IC50 ([7]; Homo sapiens, SW-620, 72 hours): 5.57 µM; IC50 ([8]; Homo sapiens): > 1 µM; IC50 ([9]; Homo sapiens, HepG2, 72 hours): > 10 µM; IC50 ([10]; Homo sapiens, A-375, 72 hours): > 1 µM; IC50 ([11]; Homo sapiens, A-431, 72 hours): 9.29 µM"
0.271,0.004,0.0003,0.0006,0.642,0.165,0.737,0.148,5.93,4.62,1.57,0.457,7.23,0.974,0.0796,CN1CCN(c2ccc(Nc3ncc4nc(Nc5cccc(Cl)c5)n(C5CCCC5)c4n3)cc2)CC1 [Compounds 8-52],–
0.552,0.0041,0.0002,0.0002,0.899,1.51,0.622,0.0953,> 10,4.21,2.11,0.559,> 10,8.07,0.249,Cc1cccc(Nc2nc3cnc(Nc4ccc(N5CCN(C)CC5)cc4)nc3n2C2CCCC2)c1 [Compounds 8-53],–
1.7,0.279,0.0063,0.205,1.07,3.96,3.35,0.863,6.96,6.73,6.64,0.688,5.98,5.58,2.06,CN1CCN(c2ccc(Nc3ncc4nc(Nc5cc(Cl)cc(Cl)c5)n(C5CCCC5)c4n3)cc2)CC1 [Compounds 8-54],–
0.323,> 10,0.0002,0.001,0.682,0.456,2.18,0.088,6.55,5.32,2.97,1.72,4.68,2.77,0.198,CN1CCN(c2ccc(Nc3ncc4nc(Nc5cc(F)ccc5F)n(C5CCCC5)c4n3)cc2)CC1 [Compounds 8-55],–
> 10,0.081,0.0006,0.007,4.43,> 10,> 10,> 10,> 10,> 10,> 10,> 10,> 10,> 10,> 10,COCCOc1ccc(Nc2ncc3nc(Nc4ccccc4)n(C4CCCC4)c3n2)cc1 [Compounds 8-56],–
> 10,0.752,0.028,0.177,6.16,> 10,> 10,0.352,7.86,9.76,8.37,4.59,> 10,> 10,5.77,CN1CCN(c2ccc(Nc3ncc4nc(Nc5cc(Cl)c(Cl)cc5Cl)n(C5CCCC5)c4n3)cc2)CC1 [Compounds 8-57],–
0.248,0.0033,0.0002,0.0021,0.0998,1.1,6.84,0.111,5.72,4.75,1.33,0.808,> 10,1.2,0.497,CCN1CCN(Cc2ccc(Nc3ncc4nc(Nc5ccccc5)n(C5CCCC5)c4n3)cc2)CC1 [Compounds 8-59],–
